Results taken from US20210284621A1 (priority 2018, published 2021).
Where two headings read alike, the source gives them in different places.

Key:
CB1 receptor [1] = target: T1, CB1 receptor (Homo sapiens, UniProt P21554); assay: cell-based; set-up: host or cells: PathHunter cell lines
Protocol: (§1) The PathHunter® β-Arrestin assay monitors the activation of a GPCR in a homogenous, non-imaging assay format using a technology developed by DiscoverX called Enzyme Fragment Complementation (EFC) with β-galactosidase (3-Gal) as the functional reporter. […] EA is fused to β-Arrestin and PK is fused to the GPCR of interest.
(§2) PathHunter cell lines were expanded from freezer stocks according to standard procedures. Cells were seeded in a total volume of 20 μL into white walled, 384-well microplates and incubated at 37° C. for the appropriate time prior to testing. For agonist activity determination, cells were incubated with sample to induce response. Intermediate dilution of sample stocks was performed to generate 5× sample in assay buffer. 5 μL of 5× sample was added to cells and incubated at 37° C. or room temperature for 90 to 180 minutes. Vehicle concentration was 1%. Assay signal was generated through a single addition of 12.5 or 15 μL (50% v/v) of PathHunter Detection reagent cocktail, followed by a one hour incubation at room temperature. Microplates were read following signal generation with a PerkinElmer Envision™ instrument for chemiluminescent signal detection. Compound activity was analyzed using CBIS data analysis suite (ChemInnovation, CA). For agonist assays, percentage activity was calculated using the following formula: % Activity=100%×(mean RLU of test sample− mean RLU of vehicle control)/(mean MAX control ligand− mean RLU of vehicle control).

CB1 receptor [2] = target: T1, CB1 receptor; assay: CB1 competitive radioligand binding assay ([3H] SR141716A); set-up: expressed in transfected cells; host or cells: Chem-1 cells; details: for inhibition at 0.5 µM: 0.5 μM compound, 2.0 nM [3H] SR141716A, 90 min 37° C.
Protocol: (§3) J Med Chem. 41(26): 5177-5187 (1998); and Munro S., et al. Molecular characterization of a peripheral receptor for cannabinoids. Nature 365:61-65 (1993).
CB1 Radioligand Binding Assay: A compound of the invention (0.5 μM in 1% DMSO) was incubated with Chem-1 cells expressing human recombinant CB1 receptor in buffer (50 mM HEPES, pH 7.4, 5 mM MgCl2, 1 mM CaCl2, 0.2% BSA) for 90 minutes at 37° C. in the presence of 2.0 nM [H^3] SR141716A (CB1 radioligand). % Inhibition was determined as a function of radioligand binding to the CB1 receptor.

CB2 receptor [3] = target: T2, CB2 receptor (Homo sapiens, UniProt P34972); assay: CB2 competitive radioligand binding assay ([3H] WIN-55,212-2); set-up: expressed in transfected cells; host or cells: CHO-K1 cells; details: for inhibition at 0.05 µM: 0.05 μM compound, 2.4 nM [3H] WIN-55,212-2, 90 min 37° C.; for Fold Selectivity (CB1/CB2): Table 3, ratio of Ki CB1/CB2
T2 sequence (P34972 whole entry): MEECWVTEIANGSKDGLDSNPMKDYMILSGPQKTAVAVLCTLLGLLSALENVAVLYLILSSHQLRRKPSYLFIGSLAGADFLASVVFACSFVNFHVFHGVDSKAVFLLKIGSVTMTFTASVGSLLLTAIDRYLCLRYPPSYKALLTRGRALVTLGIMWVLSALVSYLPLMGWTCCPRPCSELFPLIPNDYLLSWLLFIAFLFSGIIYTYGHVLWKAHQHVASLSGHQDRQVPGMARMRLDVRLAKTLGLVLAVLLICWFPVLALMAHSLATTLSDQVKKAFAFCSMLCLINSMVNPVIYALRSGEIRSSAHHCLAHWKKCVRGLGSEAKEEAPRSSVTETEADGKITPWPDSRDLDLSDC
Protocol: as §3
CB2 Radioligand Binding Assay: A compound of the invention (0.05 μM in 1% DMSO) was incubated with CHO-K1 cells expressing human recombinant CB2 receptor in buffer (20 mM HEPES, pH 7.0, 0.5% BSA) for 90 minutes at 37° C. in the presence of 2.4 nM [H^3] WIN-55,212-2 (CB2 radioligand). % Inhibition was determined as a function of radioligand binding to the […].

CB2 receptor [4] = target: T2, CB2 receptor; assay: cell-based; set-up: host or cells: cAMP Hunter cell lines
Protocol: as §1, §2

[5] = PathHunter agonist mode, read-out: CB1 Activity (β-Arrestin)
[6] = PathHunter agonist mode, read-out: CB2 Activity (β-Arrestin)

T1 sequence (P21554 whole entry, the tested form may be a part): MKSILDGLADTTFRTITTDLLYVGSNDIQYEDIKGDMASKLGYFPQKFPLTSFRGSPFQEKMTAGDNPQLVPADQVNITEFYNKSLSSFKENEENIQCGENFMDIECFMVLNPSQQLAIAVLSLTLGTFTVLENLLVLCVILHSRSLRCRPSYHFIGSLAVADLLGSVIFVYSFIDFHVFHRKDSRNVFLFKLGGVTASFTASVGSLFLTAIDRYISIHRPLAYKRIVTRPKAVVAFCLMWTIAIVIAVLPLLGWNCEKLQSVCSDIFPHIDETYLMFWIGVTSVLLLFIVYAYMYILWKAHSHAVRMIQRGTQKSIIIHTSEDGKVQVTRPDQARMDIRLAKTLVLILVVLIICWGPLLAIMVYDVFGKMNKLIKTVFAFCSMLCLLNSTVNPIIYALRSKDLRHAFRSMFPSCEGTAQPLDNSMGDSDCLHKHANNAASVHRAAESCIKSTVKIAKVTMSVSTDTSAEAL

SMILES | EC50 (CB1 receptor [1]; [5]) | inhibition at 0.5 µM (CB1 receptor [2]) | Ki (CB1 receptor [2]; Table 2, read-out: CB1 Binding Ki) | inhibition at 0.05 µM (CB2 receptor [3]) | Ki (CB2 receptor [3]; Table 2, read-out: CB2 Binding Ki) | EC50 (CB2 receptor [4]; [6]) | EC50 (CB1 receptor [1]) | EC50 (CB2 receptor [4]) | Ki (CB1 receptor [2]) | Ki (CB2 receptor [3]) | Fold Selectivity (CB1/CB2) (CB2 receptor [3])
CCCCCCC(C)(C)c1cc(O)c2c(c1)OC(C)(C)[C@@H]1CC=C(C(=O)NCC(=O)O)C[C@@H]21 [Compound 1, ((6aR,10aR)-1-Hydroxy-6,6-dimethyl-3-(2-methyloctan-2-yl)-6a,7,10,10a-tetrahydro-6H-benzo[c]chromene-9-carbonyl)glycine] | > 3000 nM | 10% | > 3000 nM | 4% | 1310 nM | 58 nM | – | – | – | – | –
CCCCCCC(C)(C)c1cc(O)c2c(c1)OC(C)(C)[C@@H]1CC=C(C(=O)N[C@H](C)C(=O)O)C[C@@H]21 [Compound 2, ((6aR,10aR)-1-Hydroxy-6,6-dimethyl-3-(2-methyloctan-2-yl)-6a,7,10,10a-tetrahydro-6H-benzo[c]chromene-9-carbonyl)-D-alanine] | > 3000 nM | 9% | – | 0% | – | > 3000 nM | – | – | – | – | –
CCCCCCC(C)(C)c1cc(O)c2c(c1)OC(C)(C)[C@@H]1CC=C(C(=O)N[C@H](Cc3ccc(O)cc3)C(=O)O)C[C@@H]21 [Compound 3] | – | 13% | – | 8% | – | – | > 3000 nM | > 3000 nM | – | – | –
CCCCCCC(C)(C)c1cc(O)c2c(c1)OC(C)(C)[C@H]1CC=C(C(=O)O)C[C@H]21 [Compound 20, (6aS,10aS)-1-Hydroxy-6,6-dimethyl-3-(2-methyloctan-2-yl)-6a,7,10,10a-tetrahydro-6H-benzo[c]chromene-9-carboxylic acid] | – | -10% | – | 9% | – | – | > 3000 nM | > 3000 nM | – | – | –
CCCCCCC(C)(C)c1cc(O)c2c(c1)OC(C)(C)[C@@H]1CC=C(C(=O)OCC(O)CO)C[C@@H]21 (stereo partly drawn) [Compound 22, 2,3-Dihydroxypropyl (6aR,10aR)-1-hydroxy-6,6-dimethyl-3-(2-methyloctan-2-yl)-6a,7,10,10a-tetrahydro-6H-benzo[c]chromene-9-carboxylate] | – | 107% | – | 92% | – | 4 nM | 42 nM | – | – | – | –
CCCCCCC(C)(C)c1cc(O)c2c(c1)OC(C)(C)[C@@H]1CC=C(C(=O)NCCC(=O)O)C[C@@H]21 [Compound 26, 3-((6aR,10aR)-1-Hydroxy-6,6-dimethyl-3-(2-methyloctan-2-yl)-6a,7,10,10a-tetrahydro-6H-benzo[c]chromene-9-carboxamido)propanoic acid] | > 3000 nM | 9% | – | 2% | – | > 3000 nM | – | – | – | – | –
CCCCCCC(C)(C)c1cc(O)c2c(c1)OC(C)(C)[C@@H]1CC=C(C(=O)NC(C)(C)CC(=O)O)C[C@@H]21 [Compound 27, 3-((6aR,10aR)-1-Hydroxy-6,6-dimethyl-3-(2-methyloctan-2-yl)-6a,7,10,10a-tetrahydro-6H-benzo[c]chromene-9-carboxamido)-3-methylbutanoic acid] | > 3000 nM | 9% | – | 7% | – | > 3000 nM | – | – | – | – | –
CCCCCCC(C)(C)C1=CC2=C(C(=O)C1=O)[C@@H]1CC(C(=O)O)=CC[C@H]1C(C)(C)O2 [Compound 30, (6aR,10aR)-6,6-dimethyl-3-(2-methyloctan-2-yl)-1,2-dioxo-2,6,6a,7,10,10a-hexahydro-1H-benzo[c]chromene-9-carboxylic acid] | > 3000 nM | 19% | – | -2% | – | > 3000 nM | – | – | – | – | –
CC(C)(CCCCCC(=O)O)c1cc(O)c2c(c1)OC(C)(C)[C@@H]1CC=C(C(=O)O)C[C@@H]21 [Compound 40] | > 10000 nM | – | – | – | – | > 1000 nM | – | – | – | – | –
CCCCCCC(C)(C)c1cc(O)c2c(c1)OC(C)(C)[C@@H]1CC=C(C(=O)NOC(C)(C)C)C[C@@H]21 [Compound 88, (6aR,10aR)-N-(tert-butoxy)-1-hydroxy-6,6-dimethyl-3-(2-methyloctan-2-yl)-6a,7,10,10a-tetrahydro-6H-benzo[c]chromene-9-carboxamide] | – | – | – | – | – | 1.7 nM | 5.9 nM | – | 5.4 nM | 1 nM | 5.7
CCCCCCC(C)(C)c1cc(O)c2c(c1)OC(C)(C)[C@@H]1CC=C(C(=O)NC3COC3)C[C@@H]21 [Compound 90, (6aR,10aR)-1-hydroxy-6,6-dimethyl-3-(2-methyloctan-2-yl)-N-(oxetan-3-yl)-6a,7,10,10a-tetrahydro-6H-benzo[c]chromene-9-carboxamide] | – | – | – | – | – | 2.7 nM | 128 nM | – | 10 nM | 2.5 nM | 4.0
CCCCCCC(C)(C)c1cc(O)c2c(c1)OC(C)(C)[C@@H]1CC=C(C(=O)NC3(C(F)(F)F)CCC3)C[C@@H]21 [Compound 96, (6aR,10aR)-1-hydroxy-6,6-dimethyl-3-(2-methyloctan-2-yl)-N-(1-(trifluoromethyl)cyclobutyl)-6a,7,10,10a-tetrahydro-6H-benzo[c]chromene-9-carboxamide] | – | – | – | – | – | 3 nM | 12.8 nM | – | 25 nM | 1.3 nM | 19.2
CCCC(C)(C)c1cc(O)c2c(c1)OC(C)(C)[C@@H]1CC=C(C(=O)NC3CCCC3)C[C@@H]21 [Compound 97, (6aR,10aR)-N-cyclopentyl-1-hydroxy-6,6-dimethyl-3-(2-methylpentan-2-yl)-6a,7,10,10a-tetrahydro-6H-benzo[c]chromene-9-carboxamide] | – | – | – | – | – | – | > 3000 nM | 17.9 nM | 780 nM | 72 nM | 10.8
CCCC(C)(C)c1cc(O)c2c(c1)OC(C)(C)[C@@H]1CC=C(C(=O)NC3(C(F)(F)F)CC3)C[C@@H]21 [Compound 102, (6aR,10aR)-1-hydroxy-6,6-dimethyl-3-(2-methylpentan-2-yl)-N-(1-(trifluoromethyl)cyclopropyl)-6a,7,10,10a-tetrahydro-6H-benzo[c]chromene-9-carboxamide] | > 3000 nM | – | – | – | – | 30.5 nM | – | – | 860 nM | 51 nM | 16.9
CCCCCCC(C)(C)c1cc(O)c2c(c1)OC(C)(C)[C@@H]1CC=C(C(=O)NC3CNC3)C[C@@H]21 [Compound 103, (6aR,10aR)-N-(azetidin-3-yl)-1-hydroxy-6,6-dimethyl-3-(2-methyloctan-2-yl)-6a,7,10,10a-tetrahydro-6H-benzo[c]chromene-9-carboxamide] | – | – | – | – | – | 9.5 nM | 1710 nM | – | 270 nM | 51 nM | 5.3
CCCCCCC(C)(C)c1cc(O)c2c(c1)OC(C)(C)[C@@H]1CC=C(C(=O)N3CCNCC3)C[C@@H]21 [Compound 104, ((6aR,10aR)-1-hydroxy-6,6-dimethyl-3-(2-methyloctan-2-yl)-6a,7,10,10a-tetrahydro-6H-benzo[c]chromen-9-yl)(piperazin-1-yl)methanone] | – | – | – | – | – | 5 nM | 4450 nM | – | 260 nM | 30 nM | 8.7
CCCCCCC(C)(C)c1cc(O)c2c(c1)OC(C)(C)[C@@H]1CC=C(C(=O)NOC)C[C@@H]21 [Compound 107] | 49.4 nM | – | – | – | – | 2.9 nM | – | – | 36.2 nM | 4.9 nM | 7.4
CCCCCCC(C)(C)c1cc(O)c2c(c1)OC(C)(C)[C@@H]1CC=C(C(=O)NS(C)(=O)=O)C[C@@H]21 [Compound 108, (6aR,10aR)-1-hydroxy-6,6-dimethyl-3-(2-methyloctan-2-yl)-N-(methylsulfonyl)-6a,7,10,10a-tetrahydro-6H-benzo[c]chromene-9-carboxamide] | – | – | – | – | – | – | 1430 nM | 29.5 nM | > 3000 nM | 302 nM | >9.9
